Assay results as given in PubChem BioAssay AID1845198 (Molecular Pharmacology Branch, DTP, NCI, 2023).

System: 425362-245-T-J1 tumor spheroids, viability % test/control
Assay: Anticancer human tumor 425362-245-T-J1 patient-derived melanoma cell line growth inhibition
Conditions: spheroids with HUVEC and MSC; for IC50: curve of first compound; for viability, T/C: stronger effect = lower value; active means viability on the fitted dose curve at most 10% of control; inactive means the rest
Method in brief: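 Complex spheroids of malignant cells with endothelial cells and mesenchymal stem cells; agents alone or combined, from near clinical Cmax (or 10 microM if unknown) down in half-log steps, 0.25% DMSO final.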

[1] = second compound 0.003 µM, first compound 0.0316 µM
[2] = second compound 0.003 µM, first compound 0.1 µM
[3] = second compound 0.003 µM, first compound 0.316 µM
[4] = second compound 0.003 µM, first compound 1 µM
[5] = second compound 0.003 µM, first compound 3.16 µM
[6] = second compound 0.003 µM, first compound 10 µM
[7] = second compound 0.00949 µM, first compound 0.0316 µM
[8] = second compound 0.00949 µM, first compound 0.1 µM
[9] = second compound 0.00949 µM, first compound 0.316 µM
[10] = second compound 0.00949 µM, first compound 1 µM
[11] = second compound 0.00949 µM, first compound 3.16 µM
[12] = second compound 0.00949 µM, first compound 10 µM
[13] = second compound 0.03 µM, first compound 0.0316 µM
[14] = second compound 0.03 µM, first compound 0.1 µM
[15] = second compound 0.03 µM, first compound 0.316 µM
[16] = second compound 0.03 µM, first compound 1 µM
[17] = second compound 0.03 µM, first compound 3.16 µM
[18] = second compound 0.03 µM, first compound 10 µM
[19] = second compound 0.0949 µM, first compound 0.0316 µM
[20] = second compound 0.0949 µM, first compound 0.1 µM
[21] = second compound 0.0949 µM, first compound 0.316 µM
[22] = second compound 0.0949 µM, first compound 1 µM
[23] = second compound 0.0949 µM, first compound 3.16 µM
[24] = second compound 0.0949 µM, first compound 10 µM
[25] = second compound 0.3 µM, first compound 0.0316 µM
[26] = second compound 0.3 µM, first compound 0.1 µM
[27] = second compound 0.3 µM, first compound 0.316 µM
[28] = second compound 0.3 µM, first compound 1 µM
[29] = second compound 0.3 µM, first compound 3.16 µM
[30] = second compound 0.3 µM, first compound 10 µM
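Further: spheroids exposed to agents for 7 days.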
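Wherever viability, T/C is given: 100% = DMSO vehicle control viability.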

CC(C)n1c(=O)n(C)c2cnc3cc(F)c(-c4ccc(OCCCN5CCCCC5)nc4)cc3c21 + CC[C@@]1(O)C(=O)OCc2c1cc1n(c2=O)Cc2cc3c(CN(C)C)c(O)ccc3nc2-1
active: viability, T/C [3] 7.7% | viability, T/C [4] 6.29% | viability, T/C [5] 8.79% | viability, T/C [6] 4.08% | viability, T/C [7] 6.58% | viability, T/C [8] 4.04% | viability, T/C [9] 3.89% | viability, T/C [10] 3.22% | viability, T/C [11] 3.36% | viability, T/C [12] 2.89% | viability, T/C [13] 5.67% | viability, T/C [14] 4.26% | viability, T/C [15] 4.37% | viability, T/C [16] 4.1% | viability, T/C [17] 5.65% | viability, T/C [18] 2.47% | viability, T/C [19] 7.71% | viability, T/C [20] 4.71% | viability, T/C [21] 4.3% | viability, T/C [22] 3.67% | viability, T/C [23] 6.89% | viability, T/C [24] 2.28% | viability, T/C [25] 2.08% | viability, T/C [26] 2.15% | viability, T/C [27] 1.84% | viability, T/C [28] 1.73% | viability, T/C [29] 1.54% | viability, T/C [30] 1.56%
< 31.6 nM: IC50 (second compound 0.003 µM) | IC50 (second compound 0.00949 µM) | IC50 (second compound 0.03 µM) | IC50 (second compound 0.0949 µM) | IC50 (second compound 0.3 µM)
inactive: viability, T/C [1] 14.6% | viability, T/C [2] 10.4%

CC1COCCN1c1cc(-c2ccnn2C)c2ccnc(-c3ccn[nH]3)c2n1 (stereo not given) + CC[C@@]1(O)C(=O)OCc2c1cc1n(c2=O)Cc2cc3c(CN(C)C)c(O)ccc3nc2-1
inactive: viability, T/C [1] 37.4% | viability, T/C [2] 15.3% | viability, T/C [7] 14.2%
< 31.6 nM: IC50 (second compound 0.003 µM) | IC50 (second compound 0.00949 µM) | IC50 (second compound 0.03 µM) | IC50 (second compound 0.0949 µM) | IC50 (second compound 0.3 µM)
active: viability, T/C [3] 6.14% | viability, T/C [4] 6.78% | viability, T/C [5] 6.36% | viability, T/C [6] 6.21% | viability, T/C [8] 6.19% | viability, T/C [9] 4.31% | viability, T/C [10] 5.51% | viability, T/C [11] 5.57% | viability, T/C [12] 5.81% | viability, T/C [13] 4.2% | viability, T/C [14] 2.9% | viability, T/C [15] 3.2% | viability, T/C [16] 4.33% | viability, T/C [17] 5.76% | viability, T/C [18] 6.29% | viability, T/C [19] 2.84% | viability, T/C [20] 1.97% | viability, T/C [21] 2.32% | viability, T/C [22] 4.06% | viability, T/C [23] 4.81% | viability, T/C [24] 4.72% | viability, T/C [25] 1.36% | viability, T/C [26] 1.31% | viability, T/C [27] 1.46% | viability, T/C [28] 1.77% | viability, T/C [29] 2.51% | viability, T/C [30] 3.29%

COc1cc(C)[nH]c(=O)c1CN1CCc2c(Cl)cc(C(OC)C3COC3)c(Cl)c2C1=O (stereo not given) + CC[C@@]1(O)C(=O)OCc2c1cc1n(c2=O)Cc2cc3c(CN(C)C)c(O)ccc3nc2-1
inactive: viability, T/C [1] 98.7% | viability, T/C [2] 102% | viability, T/C [3] 100% | viability, T/C [4] 94.3% | viability, T/C [5] 78.6% | viability, T/C [6] 79.5% | viability, T/C [7] 91% | viability, T/C [8] 89.6% | viability, T/C [9] 85.6% | viability, T/C [10] 80.6% | viability, T/C [11] 75.8% | viability, T/C [12] 59.5% | viability, T/C [13] 53.7% | viability, T/C [14] 37.2% | viability, T/C [15] 46.5% | viability, T/C [16] 47.5% | viability, T/C [17] 29.9% | viability, T/C [18] 21.6%
active: viability, T/C [19] 7.06% | viability, T/C [20] 7.25% | viability, T/C [21] 6.93% | viability, T/C [22] 7.04% | viability, T/C [23] 5.23% | viability, T/C [24] 3.44% | viability, T/C [25] 1.81% | viability, T/C [26] 2.03% | viability, T/C [27] 1.77% | viability, T/C [28] 1.79% | viability, T/C [29] 1.76% | viability, T/C [30] 1.76%
< 31.6 nM: IC50 (second compound 0.03 µM) | IC50 (second compound 0.0949 µM) | IC50 (second compound 0.3 µM)
> 10000 nM: IC50 (second compound 0.003 µM) | IC50 (second compound 0.00949 µM)

COc1ccc([C@@H](O)c2cc(-c3ncnc4cc(N5CCOCC5)ccc34)c(F)cc2Cl)nn1 + CC[C@@]1(O)C(=O)OCc2c1cc1n(c2=O)Cc2cc3c(CN(C)C)c(O)ccc3nc2-1
active: viability, T/C [19] 8.69% | viability, T/C [20] 6.08% | viability, T/C [21] 5.64% | viability, T/C [22] 5.51% | viability, T/C [23] 3.85% | viability, T/C [24] 4.39% | viability, T/C [25] 1.88% | viability, T/C [26] 1.38% | viability, T/C [27] 1.37% | viability, T/C [28] 1.12% | viability, T/C [29] 0.65% | viability, T/C [30] 0.57%
1690 nM: IC50 (second compound 0.003 µM)
inactive: viability, T/C [1] 103% | viability, T/C [2] 103% | viability, T/C [3] 72.1% | viability, T/C [4] 60.2% | viability, T/C [5] 40.6% | viability, T/C [6] 17% | viability, T/C [7] 89.7% | viability, T/C [8] 78.7% | viability, T/C [9] 72.4% | viability, T/C [10] 47.9% | viability, T/C [11] 35.1% | viability, T/C [12] 14.9% | viability, T/C [13] 45.5% | viability, T/C [14] 45.6% | viability, T/C [15] 37.8% | viability, T/C [16] 24.5% | viability, T/C [17] 15.1% | viability, T/C [18] 11.2%
1110 nM: IC50 (second compound 0.00949 µM)
< 31.6 nM: IC50 (second compound 0.03 µM) | IC50 (second compound 0.0949 µM) | IC50 (second compound 0.3 µM)

[2H]c1nc(C)nc([2H])c1-c1cc(NC[C@@H](C)c2cccc3c(C(=O)NC)ccnc23)ncn1 + CC[C@@]1(O)C(=O)OCc2c1cc1n(c2=O)Cc2cc3c(CN(C)C)c(O)ccc3nc2-1
active: viability, T/C [19] 6.85% | viability, T/C [20] 5.79% | viability, T/C [21] 4.9% | viability, T/C [22] 6.11% | viability, T/C [23] 2.84% | viability, T/C [24] 3.55% | viability, T/C [25] 1.6% | viability, T/C [26] 1.7% | viability, T/C [27] 1.43% | viability, T/C [28] 1.44% | viability, T/C [29] 1.47% | viability, T/C [30] 1.38%
< 31.6 nM: IC50 (second compound 0.03 µM) | IC50 (second compound 0.0949 µM) | IC50 (second compound 0.3 µM)
inactive: viability, T/C [1] 93.9% | viability, T/C [2] 83.5% | viability, T/C [3] 76.7% | viability, T/C [4] 74.5% | viability, T/C [5] 47.7% | viability, T/C [6] 31.4% | viability, T/C [7] 76.2% | viability, T/C [8] 60.4% | viability, T/C [9] 72.9% | viability, T/C [10] 63.8% | viability, T/C [11] 53% | viability, T/C [12] 25.5% | viability, T/C [13] 39.5% | viability, T/C [14] 32.2% | viability, T/C [15] 36.2% | viability, T/C [16] 28.3% | viability, T/C [17] 20.5% | viability, T/C [18] 9.7%
3450 nM: IC50 (second compound 0.003 µM)
3590 nM: IC50 (second compound 0.00949 µM)
